Species on record: Rattus norvegicus
Assay: Open TG-GATES - Regimen: Single
Type: toxicity, organism-based, Sprague-Dawley
Parameters: regimen Single, gender Male, age 6 weeks
Conditions: in vivo, po, route gavage; for A/G / ALP / ALT / AST / BUN / CRE / Ca / Cl / DBIL / GLC / IP / K / LDH / Na / PL / RALB / TBIL / TC / TG / TP / gamma-GTP: tissue Plasma; for APTT / Bas / Eos / Fbg / Hb / Ht / Lym / MCH / MCHC / MCV / Mono / Neu / PT / Plat / RBC / Ret / WBC: tissue Blood; for KIDNEY_L / KIDNEY_R / KIDNEY_TOTAL: tissue Kidney; for LIVER: tissue Liver
[1] = 30 mg/kg, 9 h, dose level Middle
[2] = 30 mg/kg, 24 h, dose level Middle
[3] = 100 mg/kg, 3 h, dose level High

O=C1CN(/N=C/c2ccc([N+](=O)[O-])o2)C(=O)N1 [NITROFURANTOIN]
A/G [1]: 1.6 | ALP [1]: 825.2 IU/L | ALT [1]: 33.2 IU/L | AST [1]: 62 IU/L | BUN [1]: 10.4 mg/dL | CRE [1]: 0.3 mg/dL | Ca [1]: 10.4 mg/dL | Cl [1]: 101.8 meq/L | DBIL [1]: 0.072 mg/dL | GLC [1]: 199 mg/dL | IP [1]: 9.7 mg/dL | K [1]: 3.8 meq/L | LDH [1]: 197.6 IU/L | Na [1]: 139.6 meq/L | PL [1]: 130.2 mg/dL | RALB [1]: 3.3 g/dL | TBIL [1]: 0.1 mg/dL | TC [1]: 67.4 mg/dL | TG [1]: 57.4 mg/dL | TP [1]: 5.4 g/dL | gamma-GTP [1]: 0.4 IU/L | TERMINAL_BW [2]: 231.7 g | APTT [2]: 18.6 s | Bas [2]: 0% | Eos [2]: 1% | Fbg [2]: 219.2 mg/dL | Hb [2]: 13.3 g/dL | Ht [2]: 37.8% | Lym [2]: 77.8% | MCH [2]: 21.9 pg | MCHC [2]: 35.1% | MCV [2]: 62.4 fL | Mono [2]: 2.4% | Neu [2]: 17.4% | PT [2]: 12.7 s | Plat [2]: 115.4 x10_4/uL | RBC [2]: 604.6 x10_4/ul | Ret [2]: 7.1% | WBC [2]: 92 x10_2/uL | KIDNEY_L [2]: 1.1 g | KIDNEY_R [2]: 1.1 g | KIDNEY_TOTAL [2]: 2.1 g | LIVER [2]: 11.1 g | A/G [2]: 1.6 | ALP [2]: 1093.6 IU/L | ALT [2]: 39 IU/L | AST [2]: 67.8 IU/L | BUN [2]: 13.6 mg/dL | CRE [2]: 0.4 mg/dL | Ca [2]: 10.7 mg/dL | Cl [2]: 102.2 meq/L | DBIL [2]: 0.1 mg/dL | GLC [2]: 211.8 mg/dL | IP [2]: 7.6 mg/dL | K [2]: 4.1 meq/L | LDH [2]: 176 IU/L | Na [2]: 139.8 meq/L | PL [2]: 140.8 mg/dL | RALB [2]: 3.3 g/dL | TBIL [2]: 0.2 mg/dL | TC [2]: 69.4 mg/dL | TG [2]: 115 mg/dL | TP [2]: 5.4 g/dL | gamma-GTP [2]: 1 IU/L | TERMINAL_BW [3]: 220.5 g | TERMINAL_BW (100 mg/kg, 3 h, dose level Low): 205.8 g | APTT [3]: 19.6 s | Bas [3]: 0% | Eos [3]: 1% | Fbg [3]: 215.6 mg/dL | Hb [3]: 13.1 g/dL | Ht [3]: 37.2% | Lym [3]: 78.6% | MCH [3]: 21.8 pg | MCHC [3]: 35.1% | MCV [3]: 62.1 fL | Mono [3]: 2.6% | Neu [3]: 16.4% | PT [3]: 12.8 s | Plat [3]: 113 x10_4/uL | RBC [3]: 599.8 x10_4/ul | Ret [3]: 8% | WBC [3]: 80.6 x10_2/uL | APTT (100 mg/kg, 3 h, dose level Low): 16.1 s | Eos (100 mg/kg, 3 h, dose level Low): 1.2% | Fbg (100 mg/kg, 3 h, dose level Low): 227.8 mg/dL | Hb (100 mg/kg, 3 h, dose level Low): 13.4 g/dL | Ht (100 mg/kg, 3 h, dose level Low): 40.5% | Lym (100 mg/kg, 3 h, dose level Low): 75.6% | MCH (100 mg/kg, 3 h, dose level Low): 21.4 pg | MCHC (100 mg/kg, 3 h, dose level Low): 33% | MCV (100 mg/kg, 3 h, dose level Low): 64.7 fL | Mono (100 mg/kg, 3 h, dose level Low): 6.8% | PT (100 mg/kg, 3 h, dose level Low): 11.9 s | Plat (100 mg/kg, 3 h, dose level Low): 124.7 x10_4/uL | RBC (100 mg/kg, 3 h, dose level Low): 625.4 x10_4/ul | Ret (100 mg/kg, 3 h, dose level Low): 7.7% | WBC (100 mg/kg, 3 h, dose level Low): 78.5 x10_2/uL | KIDNEY_L [3]: 1 g | KIDNEY_R [3]: 1 g | KIDNEY_TOTAL [3]: 2 g | KIDNEY_L (100 mg/kg, 3 h, dose level Low): 0.9 g | KIDNEY_TOTAL (100 mg/kg, 3 h, dose level Low): 1.9 g | LIVER [3]: 10 g | LIVER (100 mg/kg, 3 h, dose level Low): 8.6 g | A/G [3]: 1.6 | ALP [3]: 909.6 IU/L | ALT [3]: 38 IU/L | AST [3]: 69.8 IU/L | BUN [3]: 12 mg/dL | CRE [3]: 0.4 mg/dL | Ca [3]: 10.7 mg/dL | Cl [3]: 101.6 meq/L | DBIL [3]: 0.068 mg/dL | GLC [3]: 183.2 mg/dL | IP [3]: 9.2 mg/dL | K [3]: 4 meq/L | LDH [3]: 229.4 IU/L | Na [3]: 140.4 meq/L | PL [3]: 137.6 mg/dL | RALB [3]: 3.4 g/dL | TBIL [3]: 0.1 mg/dL | TC [3]: 77.2 mg/dL | TG [3]: 66.2 mg/dL | TP [3]: 5.5 g/dL | gamma-GTP [3]: 0.8 IU/L | A/G (100 mg/kg, 3 h, dose level Low): 2.4 | ALP (100 mg/kg, 3 h, dose level Low): 1349.8 IU/L | ALT (100 mg/kg, 3 h, dose level Low): 39.2 IU/L | AST (100 mg/kg, 3 h, dose level Low): 64.6 IU/L | BUN (100 mg/kg, 3 h, dose level Low): 11.2 mg/dL | CRE (100 mg/kg, 3 h, dose level Low): 0.3 mg/dL | Ca (100 mg/kg, 3 h, dose level Low): 11.1 mg/dL | Cl (100 mg/kg, 3 h, dose level Low): 104.2 meq/L | DBIL (100 mg/kg, 3 h, dose level Low): 0.006 mg/dL | GLC (100 mg/kg, 3 h, dose level Low): 187.6 mg/dL | IP (100 mg/kg, 3 h, dose level Low): 9.6 mg/dL | K (100 mg/kg, 3 h, dose level Low): 4.3 meq/L | LDH (100 mg/kg, 3 h, dose level Low): 91.8 IU/L | Na (100 mg/kg, 3 h, dose level Low): 138.8 meq/L | PL (100 mg/kg, 3 h, dose level Low): 144 mg/dL | RALB (100 mg/kg, 3 h, dose level Low): 4 g/dL | TBIL (100 mg/kg, 3 h, dose level Low): 0.032 mg/dL | TC (100 mg/kg, 3 h, dose level Low): 91.2 mg/dL | TG (100 mg/kg, 3 h, dose level Low): 63.2 mg/dL | TP (100 mg/kg, 3 h, dose level Low): 5.7 g/dL | gamma-GTP (100 mg/kg, 3 h, dose level Low): 1 IU/L | TERMINAL_BW (100 mg/kg, 6 h, dose level High): 216.2 g

Reference: ChEMBL document CHEMBL3885861, “Open TG-GATES”
